Reference: US20040014694A1, “Use of docetaxel/doxorubicin/cyclophosphamide in adjuvant therapy” (priority 2002, published 2004)

Legend:
[1] = tested on: metastatic breast cancer (MBC); conditions: MBC progressing despite previous anthracycline containing chemotherapy; cited from earlier work
[2] = In-house proprietary studies of docetaxel alone, overall response rate; assay type: in vivo; conditions: first line therapy
Procedure: Docetaxel alone, in several in-house proprietary studies, gave overall response rates of 40 to 43% (in second line therapy at a dose of 100 mg/m^2), 48% (in first line therapy at a dose of 75 mg/m^2) and 61% (in first line therapy at a dose of 100 mg/m^2).

advanced breast cancer = advanced breast cancer after anthracycline failure; cited from earlier work

CC(=O)O[C@@]12CO[C@@H]1C[C@H](O)[C@@]1(C)C(=O)[C@H](O)C3=C(C)[C@@H](OC(=O)[C@H](O)[C@@H](NC(=O)OC(C)(C)C)c4ccccc4)C[C@@](O)([C@@H](OC(=O)c4ccccc4)[C@H]21)C3(C)C [Docetaxel, docetaxel]
response, median time to progression (TTP), and survival compared with MV [1]: significantly superior to MV
overall response rate ([2]; dose 75 mg/m^2): 48%
overall response rate ([2]; dose 100 mg/m^2): 61%
response rate and TTP compared with MF (advanced breast cancer): superior to sequential methotrexate and 5-fluoruracil
